PubChem BioAssay AID2060504 (Molecular Pharmacology Branch, DTP, NCI, 2025)

System: 636577-100-R-J1-PDC complex spheroid viability
Assay: Anticancer human tumor 636577-100-R-J1-PDC patient-derived endometrial adenocarcinoma cell line growth inhibition [GQUAD]
Conditions: for IC50: curve of first compound; for viability, T/C: stronger effect = lower value
How it was run: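 Multi-cell-type spheroids of tumor cells with HUVEC and mesenchymal stem cells, treated with drug combinations. Concentrations descend in half-log steps from near clinical Cmax, or from 10 microM where Cmax is unknown; viability read-out.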

[1] = second compound 0.0316 µM, first compound 0.0316 µM
[2] = second compound 0.0316 µM, first compound 0.316 µM
[3] = second compound 0.1 µM, first compound 0.0316 µM
[4] = second compound 0.1 µM, first compound 0.316 µM
[5] = second compound 0.316 µM, first compound 0.0316 µM
[6] = second compound 0.316 µM, first compound 0.316 µM
[7] = second compound 1 µM, first compound 0.0316 µM
[8] = second compound 1 µM, first compound 0.316 µM
[9] = second compound 3.16 µM, first compound 0.0316 µM
[10] = second compound 3.16 µM, first compound 0.316 µM
[11] = second compound 10 µM, first compound 0.0316 µM
[12] = second compound 10 µM, first compound 0.316 µM
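Also: viability read after seven days of drug exposure.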
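For viability, T/C in this document: luminescence signal used as a proxy for viable cells; 100% = DMSO vehicle control wells.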

Cc1[nH]c2ccccc2c1CCNCc1ccc(/C=C/C(=O)NO)cc1 + Cc1[nH]c2ccc(F)cc2c1-c1nc2c3cccnc3c3ncccc3c2[nH]1
IC50 (second compound 0.0316 µM): 3.82 nM | IC50 (second compound 0.1 µM): 4.27 nM | IC50 (second compound 0.316 µM): 2.57 nM | IC50 (second compound 1 µM): 4.08 nM | IC50 (second compound 3.16 µM): < 0.999 nM | IC50 (second compound 10 µM): < 0.999 nM | viability, T/C (second compound 0.0316 µM, first compound 0.000999 µM): 85.4% | viability, T/C (second compound 0.0316 µM, first compound 0.00316 µM): 50.4% | viability, T/C (second compound 0.0316 µM, first compound 0.00999 µM): 37.9% | viability, T/C [1]: 17.2% | viability, T/C (second compound 0.0316 µM, first compound 0.0999 µM): 8.47% | viability, T/C [2]: 10.2% | viability, T/C (second compound 0.1 µM, first compound 0.000999 µM): 76.9% | viability, T/C (second compound 0.1 µM, first compound 0.00316 µM): 50.8% | viability, T/C (second compound 0.1 µM, first compound 0.00999 µM): 41.8% | viability, T/C [3]: 14.9% | viability, T/C (second compound 0.1 µM, first compound 0.0999 µM): 7.94% | viability, T/C [4]: 12.1% | viability, T/C (second compound 0.316 µM, first compound 0.000999 µM): 80.3% | viability, T/C (second compound 0.316 µM, first compound 0.00316 µM): 37.7% | viability, T/C (second compound 0.316 µM, first compound 0.00999 µM): 32.9% | viability, T/C [5]: 16.5% | viability, T/C (second compound 0.316 µM, first compound 0.0999 µM): 7.47% | viability, T/C [6]: 10.4% | viability, T/C (second compound 1 µM, first compound 0.000999 µM): 51.6% | viability, T/C (second compound 1 µM, first compound 0.00316 µM): 59.6% | viability, T/C (second compound 1 µM, first compound 0.00999 µM): 30.3% | viability, T/C [7]: 15.5% | viability, T/C (second compound 1 µM, first compound 0.0999 µM): 9.36% | viability, T/C [8]: 8.79% | viability, T/C (second compound 3.16 µM, first compound 0.000999 µM): 23.2% | viability, T/C (second compound 3.16 µM, first compound 0.00316 µM): 27.4% | viability, T/C (second compound 3.16 µM, first compound 0.00999 µM): 23.9% | viability, T/C [9]: 17.2% | viability, T/C (second compound 3.16 µM, first compound 0.0999 µM): 9.73% | viability, T/C [10]: 7.69% | viability, T/C (second compound 10 µM, first compound 0.000999 µM): 32.9% | viability, T/C (second compound 10 µM, first compound 0.00316 µM): 34% | viability, T/C (second compound 10 µM, first compound 0.00999 µM): 23.1% | viability, T/C [11]: 13.5% | viability, T/C (second compound 10 µM, first compound 0.0999 µM): 9.1% | viability, T/C [12]: 10.7%

CC1COCCN1c1cc(C2(O)CC3CCC(C2)O3)c2cnn(-c3ccn[nH]3)c2n1 (centres undefined) + Cc1[nH]c2ccc(F)cc2c1-c1nc2c3cccnc3c3ncccc3c2[nH]1
IC50 (second compound 0.0316 µM): 70.6 nM | IC50 (second compound 0.1 µM): 63.3 nM | IC50 (second compound 0.316 µM): 59.2 nM | IC50 (second compound 1 µM): < 31.6 nM | IC50 (second compound 3.16 µM): < 31.6 nM | IC50 (second compound 10 µM): < 31.6 nM | viability, T/C [1]: 82.9% | viability, T/C (second compound 0.0316 µM, first compound 0.1 µM): 33.8% | viability, T/C [2]: 18.5% | viability, T/C (second compound 0.0316 µM, first compound 1 µM): 7.11% | viability, T/C (second compound 0.0316 µM, first compound 3.16 µM): 3.67% | viability, T/C (second compound 0.0316 µM, first compound 10 µM): 1.06% | viability, T/C [3]: 71.2% | viability, T/C (second compound 0.1 µM, first compound 0.1 µM): 35.3% | viability, T/C [4]: 18.7% | viability, T/C (second compound 0.1 µM, first compound 1 µM): 8.6% | viability, T/C (second compound 0.1 µM, first compound 3.16 µM): 3.75% | viability, T/C (second compound 0.1 µM, first compound 10 µM): 1.19% | viability, T/C [5]: 67.1% | viability, T/C (second compound 0.316 µM, first compound 0.1 µM): 36.1% | viability, T/C [6]: 15.7% | viability, T/C (second compound 0.316 µM, first compound 1 µM): 8.55% | viability, T/C (second compound 0.316 µM, first compound 3.16 µM): 4.01% | viability, T/C (second compound 0.316 µM, first compound 10 µM): 1.3% | viability, T/C [7]: 32% | viability, T/C (second compound 1 µM, first compound 0.1 µM): 26% | viability, T/C [8]: 14.9% | viability, T/C (second compound 1 µM, first compound 1 µM): 8.44% | viability, T/C (second compound 1 µM, first compound 3.16 µM): 3.77% | viability, T/C (second compound 1 µM, first compound 10 µM): 1.61% | viability, T/C [9]: 17.9% | viability, T/C (second compound 3.16 µM, first compound 0.1 µM): 14.8% | viability, T/C [10]: 10.7% | viability, T/C (second compound 3.16 µM, first compound 1 µM): 7.29% | viability, T/C (second compound 3.16 µM, first compound 3.16 µM): 3.77% | viability, T/C (second compound 3.16 µM, first compound 10 µM): 1.49% | viability, T/C [11]: 24.6% | viability, T/C (second compound 10 µM, first compound 0.1 µM): 21.4% | viability, T/C [12]: 15.2% | viability, T/C (second compound 10 µM, first compound 1 µM): 8.61% | viability, T/C (second compound 10 µM, first compound 3.16 µM): 4.18% | viability, T/C (second compound 10 µM, first compound 10 µM): 1.5%
